We go through one compound from publication PMC9750872, “Ras-mutant cancers are sensitive to small molecule inhibition of V-type ATPases in mice” (Nature biotechnology, 2022).

One assay concerns A549 (KRASG12S). Kind of assay: Cell viability screen, CellTiter-Glo, 72 h. The format is cell-based. The conditions noted are these: Homo sapiens, ATP content/viability. Here is the method:
(§1) Figure 1: Optimization of Potency and Drug Properties of Small Molecule Inhibitors of Ras- and Raf-mutant Cells using Viability Screens. (A) Cell viability screen of ~300 small molecules in A549 (KRASG12S), LOX IMVI (BRAFV600E), and MelJuso (HRASG13D and NRASQ61L). Cells were treated with vehicle DMSO or increasing concentrations of small molecules in triplicate for 72 h and ATP content/viability was measured using CellTiter-Glo Luminescent Cell Viability Assay. The results shown for all cell viability figures are representative of at least two independent experiments. […] (C) Evolution of the Structure Activity Relationship (SAR) and IC50s of the first (68) and last (249C | lead due to drug-like properties) compounds in the screen. (D) 249C sensitivity for a panel of 53 cancer cell lines (including lung, pancreatic, breast, ovarian, hematological/liver, prostate, colorectal cancers, glioma and melanoma). […] (F) Quantitative whole proteome analysis of the effects of small molecule treatment by mass spectrometry. A549 cells were treated with DMSO or 68 (30 μM), 226C (1μM) or 249C (1μM) for 48 h prior to analysis of proteomes with TMT labeling followed by quantification relative to the DMSO control. […]
(In general: ATP-based viability assays read luminescence as a measure of living cells.)

The test system of the next assay is LOX IMVI (BRAFV600E). Description: Cell viability screen, CellTiter-Glo, 72 h. The format is cell-based. The note with it: Homo sapiens, ATP content/viability. The method, then: as §1
Assay [1] deals with T1, entire mammalian V-ATPase complex (Sus scrofa, UniProt Q9TVC1).
T1 construct: the entire V-ATPase complex (800 kDa) was purified as described previously from porcine kidneys; from tissue; host or cells: porcine kidney
T1 sequence (Q9TVC1 whole entry): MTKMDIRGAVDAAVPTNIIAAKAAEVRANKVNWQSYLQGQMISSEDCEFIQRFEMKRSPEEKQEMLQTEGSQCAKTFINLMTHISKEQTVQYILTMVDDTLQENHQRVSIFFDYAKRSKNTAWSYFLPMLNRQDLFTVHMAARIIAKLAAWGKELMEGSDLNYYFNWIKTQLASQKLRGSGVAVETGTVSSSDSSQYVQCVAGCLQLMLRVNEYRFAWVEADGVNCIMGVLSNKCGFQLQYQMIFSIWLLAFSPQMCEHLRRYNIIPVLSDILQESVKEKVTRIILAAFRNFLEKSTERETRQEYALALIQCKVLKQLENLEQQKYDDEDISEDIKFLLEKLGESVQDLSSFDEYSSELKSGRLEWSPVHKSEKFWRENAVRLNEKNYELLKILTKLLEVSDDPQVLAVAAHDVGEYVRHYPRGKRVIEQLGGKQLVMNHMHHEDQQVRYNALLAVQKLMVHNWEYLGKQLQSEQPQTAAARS
T1 sequence (Q29048 whole entry partner): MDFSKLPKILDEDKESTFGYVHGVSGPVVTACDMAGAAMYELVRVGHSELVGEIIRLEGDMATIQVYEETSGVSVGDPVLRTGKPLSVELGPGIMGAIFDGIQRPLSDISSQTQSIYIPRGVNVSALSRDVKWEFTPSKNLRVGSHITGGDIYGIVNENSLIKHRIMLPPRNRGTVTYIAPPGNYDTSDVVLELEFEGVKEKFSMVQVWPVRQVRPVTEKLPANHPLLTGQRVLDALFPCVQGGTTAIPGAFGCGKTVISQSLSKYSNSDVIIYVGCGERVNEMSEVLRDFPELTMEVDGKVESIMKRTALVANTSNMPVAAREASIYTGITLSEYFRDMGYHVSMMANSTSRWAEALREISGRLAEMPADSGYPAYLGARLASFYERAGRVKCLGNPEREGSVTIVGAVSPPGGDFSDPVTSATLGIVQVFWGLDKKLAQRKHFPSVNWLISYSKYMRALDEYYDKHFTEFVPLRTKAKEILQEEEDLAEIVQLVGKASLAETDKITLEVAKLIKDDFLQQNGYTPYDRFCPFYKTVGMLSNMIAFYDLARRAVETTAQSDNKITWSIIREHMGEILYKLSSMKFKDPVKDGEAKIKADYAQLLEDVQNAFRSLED
Kind of assay: Bio-layer interferometry (BLI). The note with it: biotinylated-249C on streptavidin sensors. The assay is classed as binding, porcine. The text has this: Figure 4. […] (A) Model of the reversible assembly of V-ATPase. Cytosolic V1 subunits are depicted in blue and membrane Vo subunits in purple. Upon V-ATPase assembly, ATP is hydrolyzed to ADP accompanied by proton (H^+) pumping and luminal acidification (decrease in pH) (Created with BioRender). […] The amount of subunit B2 present in the membrane fraction indicates the amount of assembled V-ATPase. A representative Western blot is presented. […] Cells were mechanically lysed, and a fraction containing FITC-Dextran-loaded lysosomes was isolated by sedimentation centrifugation. Fluorescence was measured over time to assess pH-dependent quenching following addition of 1 mM magnesium-ATP (predetermined). […] Representative of 5 individual experiments with n = 3 for each is presented (mean ± SD) (D) Mammalian V-ATPase activity measured in the absence and presence of 1 μM 249C and 1 μM BafA1. Data shown are mean ± SD; n = 3. Bio-layer inferometry (BLI) of (E) the entire mammalian V-ATPase complex (association protein concentrations: 30, 60, 120, 240 nM) and (F) the individual human H subunit (ATP6V1H) (association protein concentrations: 16,800 and 21,000 nM) against biotinylated-249C loaded onto streptavidin sensor tips. A reference sensor was subtracted from the signal to blank the system. The ForteBio Octet® Software on the BLI system was used to calculate Kd s. […]
On the technique in general: BLI is a label-free optical method that tracks binding on a fibre tip over time.

The next assay addresses T2, Yeast V-ATPase (Saccharomyces cerevisiae, UniProt P25515+P41807).
T2 construct: V-ATPase was purified as described previously from yeast[82] using the detergent dodecylmaltoside; endogenous in cells; host or cells: yeast
Kind of assay: Biochemical V-ATPase (ATP hydrolysis) assay. The method, then: V-ATPase was purified as described previously from yeast[82] using the detergent dodecylmaltoside and porcine kidney[83] using the detergent glycol-diosgenin. ATPase assays with purified V-ATPase were performed as described previously. 249C (mammalian: 0.1, 1, 10, 100 μM and yeast: 5, 10 and 100 μM) or BafA1 (1 μM) were added to the reaction and compared with a negative control to which only DMSO was added. Enzyme-coupled ATPase biochemical activity assays were performed in a 96-well plate as described previously. […]
appears to cause accumulation of high molecular weight entities. Representative of 3 independent experiments. […]
observed. Data shown are mean ± SD ( n = 3) Two-tailed student’s t-test (C) ATP-dependent fluorescence quenching in yeast (me an ± SD; n = 3 ) Two-t ailed student’s t-test (D) SDS PAGE over th e cou rse of recombinant human ATP6V1H protein purification. 1. Mark ers; 2. Total l ysate (GST-fusion […]); 3. Soluble lysate; 4.
GSTrap flow-through; 5. GSTrap elute; 6. Post thrombin cleavage (target 54 kDa, GST 25 kDa); 7. Subtractive GSTrap flow -through; 8. Markers; 9. Final sample, 1 µg protein load. Repres entative of 2 independent ex periments. (E) Structure of biotin- 249C. […]
interfere with V-ATPas e binding. ( F) Experimental schematic of Bio-la yer inferometr y (B L I) .
(1 picture or pasted object on this page, not shown here)

The test system of another assay is MEFs KRAS G13D. Description: Cell proliferation of Ras-less MEFs expressing human KRAS/BRAF. The note with it: Mus musculus.
The next assay concerns MEFs KRAS Q61L. The description is as above. The conditions noted are these: Mus musculus.
The subject of the next assay is MEFs BRAFV600E. Described as above. The note with it: Mus musculus.

T2 sequence (P25515 whole entry): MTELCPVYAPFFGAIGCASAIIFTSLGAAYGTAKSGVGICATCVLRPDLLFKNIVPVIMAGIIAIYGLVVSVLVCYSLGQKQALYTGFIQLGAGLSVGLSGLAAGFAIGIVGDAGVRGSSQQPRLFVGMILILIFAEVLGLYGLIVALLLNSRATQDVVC
T2 sequence (P41807 2-478): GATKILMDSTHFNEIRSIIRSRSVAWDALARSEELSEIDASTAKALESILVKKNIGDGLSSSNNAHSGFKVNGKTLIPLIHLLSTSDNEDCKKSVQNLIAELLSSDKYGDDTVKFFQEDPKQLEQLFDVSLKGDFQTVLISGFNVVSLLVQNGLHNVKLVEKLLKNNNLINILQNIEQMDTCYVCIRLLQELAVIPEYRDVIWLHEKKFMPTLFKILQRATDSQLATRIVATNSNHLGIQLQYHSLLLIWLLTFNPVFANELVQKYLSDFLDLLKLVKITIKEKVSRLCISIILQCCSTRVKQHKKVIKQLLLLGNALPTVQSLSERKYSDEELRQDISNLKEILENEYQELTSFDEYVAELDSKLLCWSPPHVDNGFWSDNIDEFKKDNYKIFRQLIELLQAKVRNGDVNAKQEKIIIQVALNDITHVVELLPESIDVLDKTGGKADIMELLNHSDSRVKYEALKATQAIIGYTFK
Experimental for MEFs BRAFV600E: (§2) Cell proliferation assays of stable cell lines treated with V-ATPase inhibitors 249C and BafA1, HCQ analog (DC661), KRASG12C inhibitor (AMG510) and autophagy inducer (CMA). For each bar, n = 3. Representative of 3 biological replicates (mean ± SD). Two-sided t-test with no adjustments for multiple comparisons.
(§3) Logarithmically growing cells were plated in antibiotic-free medium supplemented with 2% fetal bovine serum at a density of 5,000 cells per well. The next day, cells were treated in triplicates with increasing doses of in-house small molecule inhibitor drugs and a DMSO vehicle control for 3 days and subsequently assessed for cell viability by measurement of ATP with CellTiter-Glo Luminescent Cell Viability Assay (Promega). Signal intensity was read on a Glomax™ 96 Microplate Luminometer (Promega) with GLOMAX software (version 1.9.3) and percent cell survival was calculated based on the reading of vehicle control cells set as 100% using Excel (2012) and GraphPad Prism (version 6)Each compound was tested a minimum of 2 times with n = 3. All cell proliferation assays (cancer cell lines or MEFs) were done in a similar way.
Experimental for MEFs KRAS G13D: as §2, §3
Experimental for MEFs KRAS Q61L: as §3

One may read the IC50 as the concentration that inhibits the measured activity by half. High values mean lower potency, low ones higher potency. Usually Kd stands for the concentration at which binding is half-saturated. Lower therefore signals tighter binding. Turning to `CN1CCOC(CNC(=O)C2(C)C(c3ccc(Cl)o3)C(c3ccc(F)cc3F)=NN2c2ccc(F)cc2F)C1` (stereo not shown) [Compound 249C], the IC50 was determined as 73 nM in the assay on A549 (KRASG12S); 60 nM with LOX IMVI (BRAFV600E); 70 nM in the assay on MEFs KRAS G13D; 310 nM in the assay with MEFs KRAS Q61L; 110 nM in the assay with MEFs BRAFV600E. Also, in assay [1], binding was put at a Kd of 23 nM. In addition, the “Yeast V-ATPase activity” value on Yeast V-ATPase was “modest inhibition”.
